From patent US7749546B2, “Composition for effectively suppressing the growth of prostate cancer cell, suppressing the prostatic hyperplasia and its preparation method” (Golden Biotechnology Corp., priority 2004, dated 2010)

Tested on: human prostate cancer cell lines—LNCaP cells
Assay: In vitro mode adjunctive treatment activity assay with Taxol (MTT cell survival)
Assay type: cell-based
Conditions: 2 nM Taxol alone
Method: Utilize in vitro filter mode for human prostate cancer cell lines—LNCaP cells. Where human prostate cancer cell lines—LNCaP cells is being cultured in the culture medium which is supplemented by fetalbovine serum for 24 hours, and process cells by Taxol for 72 hours, and then change the culture medium so as to culture it in a new culture medium by adding assay sample for 72 hours, afterwards evaluate the cell survival rate by MIT colorimetric analysis method.
※ The assay analysis of the compositions in accordance with the present invention in effect for suppressing the growth of human prostate cancer cells, wherein it is necessary to compute the cell survival rate for cells in each well of 96-well microplate, afterwards evaluate the cancer cells survival rate by MIT colorimetric analysis method.
※ MTT colorimetric analysis method: MTT is a kind of tertrazolium salt, with a full name of 3-[4,5-Dimenthylthialzol-2-yl]2, 5-diphenyltetrazoliumbromide, which is the yellow dye, capable to be absorbed by live cells and also be reduced to blue color formazan by succinate-tetrazoliumreductase in mitochondrion, which is commonly used for filtering the affection for matters to the growth and proliferation of cells.

`CC(=O)O[C@H]1C(=O)[C@@]2(C)[C@H]([C@H](OC(=O)c3ccccc3)[C@]3(O)C[C@H](OC(=O)[C@H](O)[C@@H](NC(=O)c4ccccc4)c4ccccc4)C(C)=C1C3(C)C)[C@]1(OC(C)=O)CO[C@@H]1C[C@@H]2O` [Taxol] was tested, and the “cell survival rate for human prostate cancer cells” value was 56.4%.
